The numbers were not newly measured in US8470377B2, “Composition and method for reducing food intake” (Natures Remedies Ltd., priority 2009, dated 2013), which cites them from elsewhere.

The conditions of data set [1]: for food intake and appetite ratings: literature studies.
Another data set concerns GLP-1. The note with it: approximately 20 g per day for 7 days, human volunteers.

As for fructooligosaccharides, the “food intake and appetite ratings” value in data set [1] is “not significantly reduced”.
sodium alginate: the “reduction in energy intake” value in data set [1] (human studies) is listed as 7%.
Turning to pectin, the “food intake and appetite ratings” value in data set [1] was “not significantly reduced”.
As for methylcellulose, the “food intake and appetite ratings” value in data set [1] was “not significantly reduced”.
With `O=C(O)CC(O)(C(=O)O)C(O)C(=O)O` (centres unmarked) [HCA-SX, hydroxycitric acid], the “decrease in food intake” value in data set [1] (human studies) is reported as 4%.
For the compound oligofructose, the “reduction in total intake” value in data set [1] (human studies) is reported as 5%. The “serum GLP-1 levels” value with GLP-1 is given as “increased”.
For beta-glucan, the “food intake and appetite ratings” value in data set [1] is “not significantly reduced”.
